pIC50: −log10 of the molar value. Some results are limits rather than exact numbers.

One experiment has as its system MCF-7. Kind of experiment: Growth assay (SRB, 72 hours). Type of experiment: cell-based. Conditions: MCF-7, 72 hours; for pIC50 / CC50: Homo sapiens, MCF7; for pIC50: read-out: Growth Inhibition MCF7 IC50; for CC50: read-out: Growth Inhibition MCF7 LC50. As for the experimental part: Growth assay: The cell lines (MCF-7 and MDA-MB-231; purchased from ATCC, USA) were routinely passaged in Dulbecco's Modified Eagle's Medium (DMEM), supplemented with 10% fetal calf serum (FCS) and kept in a 37° C. incubator with 5% CO2. For the growth assay, 6000 cells were seeded into each well of 96-well plates in DMEM containing 10% FCS. Compounds prepared in DMSO were added to the medium at concentrations ranging from 0.4-100 μM. The cells were incubated for a further 72 hours, at which time they were fixed by the addition of 100 μl/well of ice-cold 40% TCA. The plates were left for 1 hour, washed in water and 100 μl of 0.4% (w/v) sulphorhodamine (SRB; Sigma-Aldrich, UK) prepared in 1% acetic acid was added. Plates were washed in 1% acetic acid to remove excess SRB reagent, air dried and bound dye was solubilized by the addition of 100 μl of 10 mM Tris base. The plates were read at 492 nm using a plate reader.

A further experiment has as its target T1, CDK9/cyclin T complex (Homo sapiens, UniProt P50750).
T1 construct: purchased Proqinase GmbH, Germany
Kind of experiment: CDK9/cyclin T kinase assay (as for CDK7). Type of experiment: biochemical. Conditions: 100 nM; mean of three (standard deviation); read-out: CDK9 % remaining kinase activity after incubation with 100 nM of compound. As for the experimental part:
(§1) Prepared test compounds, prepared at concentrations of 1000, 100, 10, 1 and 0.1 μM. Diluted 1 in 40 in ddH2O and added 1 μl of test compound or DMSO (controls). • 3. Incubated at 30° C. for 30 mins in a water bath. • 4. Added 10 µl of ATP […] per reaction to get a final concentration of 2 μM ATP. • 5. Made up to 25 μl total volume with ddH2O • 6. Incubated for 20 min at 30° C. in a water bath • 7. Used the PKLight Kinase assay (Cambrex, UK), add to each reaction 10 μl of stop reaction and mix thoroughly. Incubated at room temp for 10 min. • 8. Added 20 μ1 Luciferase reaction mixture (Cambrex, UK) per reaction, and further incubated at room temp for 10 mins and determined luciferase activities according to manufacturer's methods. Kinase reactions were added to 96 well microplates and luciferase activities determined using a Packard TopCount NXT™ luminescent counter (TopCount 9904). The luminometer was programmed to take a read time of 0.1 integrated reading and emission of light was detectable at 560 nm. • 9. All kinase inhibition assays were carried out in triplicate. As the bioluminescent signal is inversely proportional to kinase activity, all values were deducted from the no enzyme control. These values were then plotted utilizing the enzyme control as a reference to 100% activity and compared to all other values.
Inhibition of CDK2 was assessed using 50 ng CDK2/cyclin A complex (Proqinase GmbH, Germany), as above for CDK7 Inhibition of CDK9 was assessed using 100 ng CDK9/cyclin T complex (Proqinase GmbH, Germany), as above for CDK7.

The target in the next experiment is T2, CDK2/cyclin A complex (Homo sapiens, UniProt P24941).
T2 construct: purchased Proqinase GmbH, Germany
Kind of experiment: CDK2/cyclin A kinase assay (as for CDK7). In kind it is biochemical. Conditions: for remaining activity at 0.1 µM: 100 nM, mean of three (standard deviation), read-out: CDK2 % remaining kinase activity after incubation with 100 nM of compound; for pIC50: Table 7, mean of three experiments, read-out: CDK2 kinase inhibition in vitro (IC50). The method in brief:
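Run as the CDK7 protocol with 50 ng CDK2/cyclin A or 100 ng CDK9/cyclin T; compound 30 min at 30 °C, then 2 μM ATP final for 20 min at 30 °C. ATP depletion by luciferase luminescence (PKLight), triplicate, normalised to no-enzyme and enzyme controls.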

The target in experiment [1] is T3, CDK4 (Homo sapiens, UniProt P11802). In words: CDK4 in vitro kinase inhibition (protocol similar to Example 14). Type of experiment: biochemical. Conditions: for remaining activity at 0.1 µM: 100 nM, mean of three (standard deviation), read-out: CDK4 % remaining kinase activity after incubation with 100 nM of compound; for pIC50: Table 7, mean of three experiments. As for the experimental part:
as §1
(§2) This example provides in vitro kinase inhibition data for various compounds within the scope of the invention versus CDK 2, CDK 4, CDK, 5, CDK 7 and CDK 9. The protocol was similar to that shown in Example 14 Inhibition of the protein kinases was performed in triplicate using each compound at 100 nM.
(§3) This example provides in vitro kinase inhibition data for various compounds within the scope of the invention versus CDK 2, CDK 4, CDK, 5, CDK 7 and CDK 9.

Another experiment deals with CAK (CDK7) (Homo sapiens, UniProt P50613). Kind of experiment: 32P incorporation kinase assay, CAK.
Experiment [2] deals with T3, CDK4. In words: 32P incorporation kinase assay, CDK4.
Another experiment deals with CDK 5 (Homo sapiens, UniProt Q00535). Kind of experiment: CDK5 in vitro kinase inhibition (protocol similar to Example 14). Type of experiment: biochemical. Conditions: 100 nM; mean of three (standard deviation); read-out: CDK5 % remaining kinase activity after incubation with 100 nM of compound. As for the experimental part:
as §1, §2, §3

The next experiment concerns MCF-7 cell line. In words: cells. Conditions: Homo sapiens, MCF-7, SRB assay, 24 hours; for LC50 (concentration causing 50% net cell kill) / IC (total growth inhibition): MCF7, 24 h; for IC (total growth inhibition): read-out: TGI; for pIC50: MCF7, mean of three experiments, read-out: IC50. In kind it is cell-based.
The target in experiment [3] is T4, CDK7 complex (CDK7, Cyclin H, MAT1) (Homo sapiens, UniProt P50613).
T4 construct: purchased Proqinase GmbH, Germany
In words: CDK7/CycH/MAT1 trimeric complex kinase assay (PKLight luciferase). In kind it is biochemical. Conditions: 100 nM; mean of three (standard deviation); read-out: CDK7 % remaining kinase activity after incubation with 100 nM of compound. The method in brief: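 Compound was preincubated with the kinase for 30 min at 30 °C; the reaction then ran for 20 min at 30 °C with 2 μM ATP final. Remaining ATP was measured by PKLight luciferase luminescence at 560 nm. Values were corrected against the no-enzyme control and expressed relative to enzyme-only activity (100%), in triplicate.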

Chain of CDK 5 (Q00535 whole entry): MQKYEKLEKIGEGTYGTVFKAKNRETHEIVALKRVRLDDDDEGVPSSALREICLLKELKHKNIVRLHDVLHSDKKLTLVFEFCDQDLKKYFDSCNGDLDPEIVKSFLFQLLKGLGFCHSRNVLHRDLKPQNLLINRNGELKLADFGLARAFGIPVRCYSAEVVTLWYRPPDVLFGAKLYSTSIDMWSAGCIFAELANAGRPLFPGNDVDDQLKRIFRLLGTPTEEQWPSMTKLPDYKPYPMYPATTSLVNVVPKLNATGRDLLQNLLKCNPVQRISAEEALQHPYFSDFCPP
Chain of CDK 5 (Q15078 whole entry partner): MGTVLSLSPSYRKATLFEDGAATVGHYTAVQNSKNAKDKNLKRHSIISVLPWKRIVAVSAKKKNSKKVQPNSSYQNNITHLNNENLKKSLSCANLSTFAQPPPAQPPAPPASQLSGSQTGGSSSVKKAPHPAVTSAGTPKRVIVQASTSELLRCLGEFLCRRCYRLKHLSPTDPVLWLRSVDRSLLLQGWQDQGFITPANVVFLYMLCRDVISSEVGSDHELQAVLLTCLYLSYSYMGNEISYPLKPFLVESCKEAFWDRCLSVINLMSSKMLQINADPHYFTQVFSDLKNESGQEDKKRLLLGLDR
T1 sequence (P50750 whole entry): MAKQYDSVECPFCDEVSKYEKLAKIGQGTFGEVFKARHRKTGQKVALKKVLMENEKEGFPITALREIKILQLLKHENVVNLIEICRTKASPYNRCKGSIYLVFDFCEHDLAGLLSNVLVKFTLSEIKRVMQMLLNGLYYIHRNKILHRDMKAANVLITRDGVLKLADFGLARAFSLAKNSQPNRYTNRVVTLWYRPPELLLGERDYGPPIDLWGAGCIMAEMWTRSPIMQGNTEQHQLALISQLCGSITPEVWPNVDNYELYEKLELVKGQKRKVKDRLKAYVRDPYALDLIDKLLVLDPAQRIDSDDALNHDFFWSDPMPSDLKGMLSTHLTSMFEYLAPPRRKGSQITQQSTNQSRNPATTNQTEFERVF
T1 sequence (O60563 whole entry partner): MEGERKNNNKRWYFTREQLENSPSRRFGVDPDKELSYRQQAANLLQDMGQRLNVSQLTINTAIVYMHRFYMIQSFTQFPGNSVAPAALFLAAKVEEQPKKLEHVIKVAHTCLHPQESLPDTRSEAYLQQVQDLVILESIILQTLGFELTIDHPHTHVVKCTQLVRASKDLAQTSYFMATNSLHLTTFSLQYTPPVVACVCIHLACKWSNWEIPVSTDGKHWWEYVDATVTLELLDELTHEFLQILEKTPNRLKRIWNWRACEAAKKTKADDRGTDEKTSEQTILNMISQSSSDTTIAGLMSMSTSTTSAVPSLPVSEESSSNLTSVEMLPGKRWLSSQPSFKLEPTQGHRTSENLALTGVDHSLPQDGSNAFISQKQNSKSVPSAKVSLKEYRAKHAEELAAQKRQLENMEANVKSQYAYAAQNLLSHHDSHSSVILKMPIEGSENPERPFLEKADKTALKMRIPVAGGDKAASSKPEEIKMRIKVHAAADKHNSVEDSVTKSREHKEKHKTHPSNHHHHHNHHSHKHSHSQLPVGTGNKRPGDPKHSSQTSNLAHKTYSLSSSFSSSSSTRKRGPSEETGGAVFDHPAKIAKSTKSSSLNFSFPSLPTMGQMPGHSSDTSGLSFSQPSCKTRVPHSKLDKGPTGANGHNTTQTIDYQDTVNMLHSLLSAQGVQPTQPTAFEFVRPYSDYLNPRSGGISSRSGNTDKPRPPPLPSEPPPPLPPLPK
T3 sequence (P11802 whole entry): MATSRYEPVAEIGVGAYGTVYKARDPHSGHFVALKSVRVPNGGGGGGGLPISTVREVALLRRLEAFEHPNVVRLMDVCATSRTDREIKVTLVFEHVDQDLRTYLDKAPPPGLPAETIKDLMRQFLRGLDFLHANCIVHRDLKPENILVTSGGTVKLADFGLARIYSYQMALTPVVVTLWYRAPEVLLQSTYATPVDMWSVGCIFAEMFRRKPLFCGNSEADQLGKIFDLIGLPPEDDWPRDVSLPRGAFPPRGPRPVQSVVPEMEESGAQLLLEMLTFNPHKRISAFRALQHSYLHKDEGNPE
T3 sequence (P24385 whole entry partner): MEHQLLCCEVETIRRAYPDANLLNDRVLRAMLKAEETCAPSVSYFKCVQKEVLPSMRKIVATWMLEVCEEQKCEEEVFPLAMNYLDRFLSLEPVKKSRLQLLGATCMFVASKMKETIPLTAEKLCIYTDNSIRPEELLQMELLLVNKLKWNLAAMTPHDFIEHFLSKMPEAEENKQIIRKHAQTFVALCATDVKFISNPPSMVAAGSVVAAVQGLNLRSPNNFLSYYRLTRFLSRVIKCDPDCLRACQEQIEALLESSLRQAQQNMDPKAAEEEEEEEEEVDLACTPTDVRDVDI
Chain of CAK (CDK7) (P50613 whole entry): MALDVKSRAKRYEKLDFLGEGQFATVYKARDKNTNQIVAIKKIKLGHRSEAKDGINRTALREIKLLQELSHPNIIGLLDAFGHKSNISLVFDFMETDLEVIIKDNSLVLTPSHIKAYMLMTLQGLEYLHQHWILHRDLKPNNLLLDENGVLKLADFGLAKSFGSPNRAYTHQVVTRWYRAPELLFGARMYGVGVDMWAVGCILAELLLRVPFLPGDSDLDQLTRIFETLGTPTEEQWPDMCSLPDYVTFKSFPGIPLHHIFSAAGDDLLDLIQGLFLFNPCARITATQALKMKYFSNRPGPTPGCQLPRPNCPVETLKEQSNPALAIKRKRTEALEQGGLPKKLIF
Chain of CAK (CDK7) (P51946 whole entry partner): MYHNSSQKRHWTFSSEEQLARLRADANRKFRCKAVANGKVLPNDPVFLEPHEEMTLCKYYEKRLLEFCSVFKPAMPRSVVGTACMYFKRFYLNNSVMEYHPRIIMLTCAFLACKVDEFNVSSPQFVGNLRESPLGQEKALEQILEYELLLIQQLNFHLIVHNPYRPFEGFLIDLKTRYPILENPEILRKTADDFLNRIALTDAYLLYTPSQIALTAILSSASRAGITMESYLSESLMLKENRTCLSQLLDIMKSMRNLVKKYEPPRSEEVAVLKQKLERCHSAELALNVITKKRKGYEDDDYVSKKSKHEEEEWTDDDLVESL
Chain of CAK (CDK7) (P51948 whole entry partner): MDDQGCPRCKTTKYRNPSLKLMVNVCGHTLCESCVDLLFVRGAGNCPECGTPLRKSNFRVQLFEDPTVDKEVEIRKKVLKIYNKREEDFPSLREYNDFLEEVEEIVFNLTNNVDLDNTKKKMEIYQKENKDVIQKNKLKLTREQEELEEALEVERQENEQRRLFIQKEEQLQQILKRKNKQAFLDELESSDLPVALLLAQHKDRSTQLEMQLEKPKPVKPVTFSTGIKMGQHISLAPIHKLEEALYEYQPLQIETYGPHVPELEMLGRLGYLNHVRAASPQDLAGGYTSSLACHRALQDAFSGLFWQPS
T4 sequence (P50613 whole entry): as the sequence (P50613 whole entry) above
T4 sequence (P51946 whole entry partner): as the sequence (P51946 whole entry partner) above
T4 sequence (P51948 whole entry partner): as the sequence (P51948 whole entry partner) above

For `CC(C)c1cnn2c(NCc3ccccc3F)cc(NC(CO)CCCCCCc3ccccn3)nc12` (centres unmarked) [ICEC0160], the pIC50 in the experiment on MCF-7 was 4.26; against CAK (CDK7), 7.36; against CDK4 [2], less than 6.00. Moreover, in the experiment on MCF-7, the CC50 is greater than 100 µM. Moreover, in the experiment with MCF-7, the “Growth Inhibition MCF7 TGI” value is greater than 100 µM. For the same molecule, the remaining activity at 0.1 µM came to 100% at CDK9/cyclin T complex, 97% on CDK2/cyclin A complex, 99% at CDK4 [1] and 92% at CDK 5.

As for `CC(C)c1cnn2c(NCc3ccccc3)cc(NC(CO)CCCCCCc3ccccn3)nc12` (centres unmarked) [ICEC0159], the pIC50 was 4.06 in the experiment on MCF-7, less than 6.00 at CDK4 [1], 7.38 at CAK (CDK7) and less than 6.00 on CDK4 [2]. The CC50 in the experiment with MCF-7 was greater than 100 µM. The “Growth Inhibition MCF7 TGI” value with MCF-7 was greater than 100 µM. Further, the remaining activity at 0.1 µM on CDK9/cyclin T complex turned out to be 100%; on CDK2/cyclin A complex, 84%; at CDK4 [1], 98%; on CDK 5, 89%.

As to `CC(C)c1cnn2c(NCc3ccccc3)cc(N[C@@H](CO)CCCCCCCc3ccc(F)nc3)nc12` [ICEC0141], the pIC50 in the experiment on MCF-7 is less than 4.00; against CDK4 [1], less than 6.00; on CAK (CDK7), 7.10; against CDK4 [2], less than 6.00. Besides, in the experiment with MCF-7, the CC50 stood at 42 µM. Further, the “Growth Inhibition MCF7 TGI” value in the experiment with MCF-7 was greater than 100 µM. The remaining activity at 0.1 µM on CDK9/cyclin T complex is 95%; at CDK2/cyclin A complex, 84%; on CDK4 [1], 99%; at CDK 5, 95%.

Take `CC(C)c1cnn2c(NCc3ccccc3)cc(NCCCCCCC#N)nc12` [ICEC0179]: the pIC50 in the experiment with MCF-7 was 4.46; against CDK4 [1], less than 6.00; against CAK (CDK7) it was 7.70; in the experiment with MCF-7 cell line, 4.36; on CDK4 [2], less than 6.00. For the same molecule, the CC50 in the experiment with MCF-7 was greater than 100 µM. For the same molecule, the “Growth Inhibition MCF7 TGI” value in the experiment with MCF-7 is greater than 100 µM. For the same molecule, the remaining activity at 0.1 µM amounted to 97% on CDK9/cyclin T complex, 52% on CDK2/cyclin A complex, 99% on CDK4 [1] and 94% on CDK 5. Further, in the experiment with MCF-7 cell line, the LC50 (concentration causing 50% net cell kill) was determined as 16 µM. The IC (total growth inhibition) with MCF-7 cell line is 26 µM.

On to `CC(C)c1cnn2c(NCc3ccccc3F)cc(NC(CO)CCCCCCCc3ccc(F)nc3)nc12` (centres unmarked) [ICEC0138], for which the negative-log IC50 (pIC50) in the experiment on MCF-7 is 4.16; against CDK4 [1] it was less than 6.00; on CAK (CDK7), 7.34; at CDK4 [2], less than 6.00. For the same molecule, the CC50 with MCF-7 is greater than 100 µM. The “Growth Inhibition MCF7 TGI” value in the experiment with MCF-7 is greater than 100 µM. Also, the remaining activity at 0.1 µM was found to be 100% at CDK9/cyclin T complex, 100% on CDK2/cyclin A complex, 92% at CDK4 [1] and 98% at CDK 5.

For the molecule `CC(C)c1cnn2c(NCc3ccccc3F)cc(NC(CO)CCCCCCCc3cncnc3)nc12` (centres unmarked) [ICEC0168], the pIC50 in the experiment with MCF-7 is less than 4.00; on CDK2/cyclin A complex it was greater than 7.00; against CDK4 [1], less than 6.00; at CAK (CDK7) it was 6.92; with MCF-7 cell line, less than 4.00; against CDK4 [2] it was less than 6.00. For the same molecule, in the experiment with MCF-7, the CC50 amounted to 35 µM. Besides, the “Growth Inhibition MCF7 TGI” value in the experiment with MCF-7 was greater than 100 µM. In addition, the remaining activity at 0.1 µM at CDK9/cyclin T complex stood at 91%; at CDK2/cyclin A complex it was 83%; on CDK4 [1], 96%; at CDK 5, 97%. Further, the LC50 (concentration causing 50% net cell kill) in the experiment on MCF-7 cell line was 25 µM. Besides, in the experiment on MCF-7 cell line, the IC (total growth inhibition) stood at 55 µM.

Consider `CC(C)c1cnn2c(NCc3ccccc3F)cc(N[C@@H](CO)CCCCCCc3ncccn3)nc12` [ICEC0161], for which the pIC50 with MCF-7 was 4.64; against CDK4 [1], less than 6.00; against CAK (CDK7), 7.26; on CDK4 [2], less than 6.00. Besides, the CC50 in the experiment with MCF-7 was greater than 100 µM. Moreover, the “Growth Inhibition MCF7 TGI” value in the experiment on MCF-7 was 36 µM. Further, the remaining activity at 0.1 µM on CDK9/cyclin T complex amounted to 100%; on CDK2/cyclin A complex it was 71%; on CDK4 [1], 99%; at CDK 5, 92%.

For `CC(C)c1cnn2c(NCc3ccccc3F)cc(N[C@@H](CO)CCCCCCN)nc12` [ICEC0052], the remaining activity at 0.1 µM on CDK9/cyclin T complex is 85%; in experiment [3], 34%; on CDK2/cyclin A complex, 88%; at CDK4 [1] it was 90%; on CDK 5, 90%. The results for the pIC50 on CDK2/cyclin A complex, against CDK4 [1] and with MCF-7 cell line were less than 6.00, less than 6.00 and 4.33, respectively. The LC50 (concentration causing 50% net cell kill) in the experiment on MCF-7 cell line was found to be 21 µM. Also, the IC (total growth inhibition) in the experiment with MCF-7 cell line came out at 32 µM.

On to `CC(C)c1cnn2c(NCc3ccccc3F)cc(NCC(O)CO)nc12` (centres unmarked) [ICEC0295, 3-(7-(2-fluorobenzylamino)-3-isopropylpyrazolo[1,5-a]pyrimidin-5-ylamino)propane-1,2-diol], for which the remaining activity at 0.1 µM was found to be 57% at CDK9/cyclin T complex; 88% in [3]; 98% at CDK2/cyclin A complex; 99% at CDK4 [1]; 57% on CDK 5. For the same molecule, the LC50 (concentration causing 50% net cell kill) in the experiment with MCF-7 cell line turned out to be 15 µM.

Usually pIC50 stands for −log10 of the IC50, conventionally taken in molar units. Broadly, the remaining activity is the activity still measured, relative to the control.

Values taken from patent US8067424B2, “Selective inhibitors for cyclin-dependent kinases” (Emory University, priority 2007, dated 2011).
